# Laboratory results taken from patent US20230279002A1, “Polymorphs of Crystalline Forms of 3,10-dimethoxy-5,8,13,13a-tetrahydro-6H-isoquinolino[3,2-a]isoquinolin-9-yl 3-fluorobenzenesulfonate and Salts Thereof” (CVI Pharmaceuticals Limited, priority 2020, published 2023).
# Like-named read-outs stand apart in the source and are kept apart here.
# What was measured:
# Format in all cases: physicochemical
# [1] = DVS (Dynamic Vapor Sorption) moisture sorption/desorption, hygroscopicity classification
# Procedure: DVS (Dynamic Vapor Sorption): Around 10-20 mg of samples were used to test its moisture sorption/desorption profiles at 25° C. under 0%˜95%˜0% relative humidity (RH) cycle using dm/dt: 0.01%/min equilibrium and a measurement step of 5% RH.
# Hygroscopicity Classification: Typical %-moisture gain as a function of increased RH was determined by DVS. Samples went through a dynamic test isothermally at 25° C. The test was divided into 2 processes, one was absorption process, the other was desorption process. RH ranged from 0% to 95% with 5% RH for each step, and when dm/dt<=0.01%, it was assumed the water sorption/desorption equilibrium is reached.
# [2] = Solubility in SGF, FaSSIF, FeSSIF, 0.1M HCl, pH 4.5 and pH 6.8 aqueous at 25° C. (HPLC); conditions: for solubility: 25 °C, thermodynamic from solid, read-out: Solubility conc.(mg/ml); for Final pH: solubility test
# Procedure: Solubility: Excess drug substance was equilibrated with SGF (Simulated Gastric Fluid), FaSSIF (Simulated Small Intestinal Fluid under Fasted state), FeSSIF (Simulated Small Intestinal Fluid under Fed state), 0.1M HCl, pH 4.5 aqueous, and pH 6.8 aqueous at 25° C. After stirring for 20˜24 h, each sample was filtered, diluted appropriately and analyzed by HPLC. The experiment was terminated once a solubility target of 5 mg/mL was reached.
# [3] = Solid stability at 40° C./0% RH (closed) and 40° C./75% RH (open), HPLC; conditions: for 0 day % remaining / 7 day % remaining / 21 day % remaining: solid
# Method in brief: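 Solid compound (5 mg) stored in the dark at 40 °C/0% RH in closed vials and at 40 °C/75% RH open. Samples analysed by HPLC at day 0, 5 and 10, or at days 0, 7 and 21, depending on the study.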
# [4] = Solution stability in 0.1 N HCl, pH 4.5 buffer and pH 6.8 buffer at 25° C. and 37° C., HPLC; conditions: for Remaining %: 50 μg/mL, 40% MeOH; for Solution stability: 0.1 N HCl, pH 4.5 buffer and pH 6.8 buffer
# Procedure: Solution stability: A stock solution of compound (1.0 mg/mL) in MeOH was diluted with 0.1 N HCl, pH 4.5 buffer (acetate) and pH 6.8 buffer to reach constant ionic strength of 0.15 M and the same final concentration (50 μg/mL, 40% MeOH).
# A stock solution of 1b and 3b (1.0 mg/mL) in MeOH was diluted with pH 6.8 buffer to reach constant ionic strength of 0.15M and the same final concentration (25 μg/mL, 40% […]).
# The solutions were stored at 25° C. and 37° C.
# [5] = TGA (Thermal Gravimetric Analysis) weight loss; conditions: DSC and TGA
# Procedure: TGA (Thermal Gravimetric Analysis): Samples of compounds (4˜6 mg) were weighed into the pan, and heated under nitrogen purge using a ramp rate of 20° C./min over the range of 30° C.˜350° C.
structure (smiles),measurement,setting,value
COc1ccc2c(c1)CCN1Cc3c(ccc(OC)c3OS(=O)(=O)c3cccc(F)c3)C[C@@H]21 [Compound 2b],"Change In Mass (%) - ref, Desorption","[1]; Cycle 1, target RH 85.0%",0.0530%
same,"Change In Mass (%) - ref, Hysteresis","[1]; Cycle 1, target RH 85.0%",0.0030%
same,"Change In Mass (%) - ref, Sorption","[1]; Cycle 1, target RH 85.0%",0.0500%
same,"Change In Mass (%) - ref, Desorption","[1]; Cycle 1, target RH 90.0%",0.0689%
same,"Change In Mass (%) - ref, Hysteresis","[1]; Cycle 1, target RH 90.0%",0.0051%
same,"Change In Mass (%) - ref, Sorption","[1]; Cycle 1, target RH 90.0%",0.0638%
same,"Change In Mass (%) - ref, Desorption","[1]; Cycle 1, target RH 95.0%",0.0941%
same,"Change In Mass (%) - ref, Sorption","[1]; Cycle 1, target RH 95.0%",0.0941%
same,moisture picked up (DVS),"[1]; at 95% RH, 25 °C",~0.1%
same,solubility,"[2]; 0.1 N HCl, simulated gastric fluid, 0.1N HCL, solubility of salts transformed to freebase",0.206 mg/mL
same,solubility,"[2]; FaSSIF (Simulated Small Intestinal Fluid, fasted state), fassif, FaSSIF, solubility of salts transformed to freebase",0.01 mg/mL
same,solubility,"[2]; FeSSIF (Simulated Small Intestinal Fluid, fed state), fessif, FeSSIF, solubility of salts transformed to freebase",0.011 mg/mL
same,Solubility conc.(mg/ml),"[2]; SGF, solubility of salts transformed to freebase",0.147 mg/mL
same,solubility,"[2]; pH 4.5 acetate buffer (USP), pH 4.5, aqueous buffer, pH 4.5 Acetate Buffer (USP), solubility of salts transformed to freebase",0.01 mg/mL
same,solubility,"[2]; pH 6.8 phosphate buffer (USP), pH 6.8, aqueous buffer, pH 6.8 Phosphate Buffer (USP), solubility of salts transformed to freebase",0.008 mg/mL
same,Final pH,[2]; 0.1N HCL,1.59
same,Final pH,[2]; FaSSIF,6.23
same,Final pH,[2]; FeSSIF,4.93
same,Final pH,[2]; SGF,1.59
same,Final pH,[2]; Water,2.74
same,Final pH,[2]; pH 4.5 Acetate Buffer (USP),4.44
same,Final pH,[2]; pH 6.8 Phosphate Buffer (USP),6.67
same,solubility,"[2]; water, water, Water, solubility of salts transformed to freebase",0.096 mg/mL
same,Solid-state stability (HPLC),"[3]; 40° C./0% RH (closed) and 40° C./75% RH (open), dark, up to 3 weeks",substantially stable
same,0 day % remaining,"[3]; 40° C. (0% RH, closed)",100.0%
same,7 day % remaining,"[3]; 40° C. (0% RH, closed)",100.4%
same,21 day % remaining,"[3]; 40° C. (0% RH, closed)",100.0%
same,0 day % remaining,[3]; 40° C./75% RH (open),100.0%
same,7 day % remaining,[3]; 40° C./75% RH (open),100.3%
same,21 day % remaining,[3]; 40° C./75% RH (open),100.1%
same,"Solution stability, overall comparison of 1b, 2b and 3b",[4]; 25° C. and 37° C.,best solution stability behaviors
same,Remaining %,"[4]; 25° C., 0.1N HCL, 0 h",100.00%
same,Remaining %,"[4]; 25° C., 0.1N HCL, 3 h",100.07%
same,Remaining %,"[4]; 25° C., 0.1N HCL, 24 h",100.37%
same,Solution stability,"[4]; 25° C., 24 h",stable
same,Remaining %,"[4]; 25° C., pH 4.5, 0 h",100.00%
same,Remaining %,"[4]; 25° C., pH 4.5, 3 h",99.80%
same,Remaining %,"[4]; 25° C., pH 4.5, 24 h",99.52%
same,Remaining %,"[4]; 25° C., pH 6.8, 0 h",100.00%
same,Remaining %,"[4]; 25° C., pH 6.8, 3 h",99.52%
same,Remaining %,"[4]; 25° C., pH 6.8, 24 h",98.01%
same,Remaining %,"[4]; 37° C., 0.1N HCL, 0 h",100.00%
same,Remaining %,"[4]; 37° C., 0.1N HCL, 3 h",100.34%
same,Remaining %,"[4]; 37° C., 0.1N HCL, 24 h",100.95%
same,Solution stability,"[4]; 37° C., 24 h",stable
same,Remaining %,"[4]; 37° C., pH 4.5, 0 h",100.00%
same,Remaining %,"[4]; 37° C., pH 4.5, 3 h",100.00%
same,Remaining %,"[4]; 37° C., pH 4.5, 24 h",99.45%
same,Remaining %,"[4]; 37° C., pH 6.8, 0 h",100.00%
same,Remaining %,"[4]; 37° C., pH 6.8, 3 h",100.28%
same,Remaining %,"[4]; 37° C., pH 6.8, 24 h",99.86%
same,Temperature until which there is no weight loss,[5],about 200 °C
